The record followed here is patent US5756121A, “Antibiotic formulation and use for drug resistant infections” (NeXstar Pharmaceuticals, Inc., priority 1995, dated 1998).

The test system of the assay is M. tuberculosis, drug resistant strain Vertulla. It is filed as cell-based, Mycobacterium tuberculosis (in human macrophages). The following applies: for CFU: duplicate values.

Molecules are shown by their SMILES. Values joined by “and” are separate entries in the source; they are usually repeats but may differ in a detail not shown here. Equal entries are not always repeated. “Also recorded” adds a separate entry of the source. Where two headings read alike, the source gives them in different places.

Consider `NCC[C@H](O)C(=O)N[C@@H]1C[C@H](N)[C@@H](O[C@H]2O[C@H](CN)[C@@H](O)[C@H](O)[C@H]2O)[C@H](O)[C@H]1O[C@H]1O[C@H](CO)[C@@H](O)[C@H](N)[C@H]1O` [amikacin], for which the CFU was 9.3 1 × 10^3 cfu per monolayer and 8.0 1 × 10^3 cfu per monolayer (4 μg/ml, day 4); 5 1 × 10^3 cfu per monolayer and 4 1 × 10^3 cfu per monolayer (8 μg/ml, day 4); 4.5 1 × 10^3 cfu per monolayer and 6.2 1 × 10^3 cfu per monolayer (8 μg/ml, day 7); 5 1 × 10^3 cfu per monolayer and 5.4 1 × 10^3 cfu per monolayer (16 μg/ml, day 4); 3.7 1 × 10^3 cfu per monolayer and 4.1 1 × 10^3 cfu per monolayer (16 μg/ml, day 7). For the same molecule, the “inhibition / killing of drug resistant bacteria (in words)” value (4, 8 and 16 μg/ml, killing = fewer cfu than previous time point, listed as free amikacin) is “at the most, inhibition; also recorded: only inhibit the growth of the infection without killing”.
